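The concentration for 50% growth inhibition is given as GI50. At the TGI there is no net growth.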
What was measured:
Assay in all cases: NCI tumour cell line growth inhibition, 384-well format
CAKI-1 renal = test system: CAKI-1 renal
A549 NSCLC = test system: A549 NSCLC
OVCAR-5 ovarian = test system: OVCAR-5 ovarian
SW-620 colon = test system: SW-620 colon
SF-539 CNS = test system: SF-539 CNS
SF-295 CNS = test system: SF-295 CNS
OVCAR-3 ovarian = test system: OVCAR-3 ovarian
MOLT-4 leukemia = test system: MOLT-4 leukemia
SK-OV-3 ovarian = test system: SK-OV-3 ovarian
IGROV1 ovarian = test system: IGROV1 ovarian
TK-10 renal = test system: TK-10 renal
SN12C renal = test system: SN12C renal
HT29 colon = test system: HT29 colon
MDA-MB-435 melanoma = test system: MDA-MB-435 melanoma
PC-3 prostate = test system: PC-3 prostate
NCI-H322M lung = test system: NCI-H322M lung
MDA-MB-231 breast = test system: MDA-MB-231 breast
ACHN renal = test system: ACHN renal
SR leukemia = test system: SR leukemia
SK-MEL-2 melanoma = test system: SK-MEL-2 melanoma
COLO 205 colon = test system: COLO 205 colon
MALME-3M melanoma = test system: MALME-3M melanoma
T-47D breast = test system: T-47D breast
NCI-H522 lung = test system: NCI-H522 lung
HS 578T breast = test system: HS 578T breast
SK-MEL-28 melanoma = test system: SK-MEL-28 melanoma
EKVX NSCLC = test system: EKVX NSCLC
HOP-92 NSCLC = test system: HOP-92 NSCLC
RPMI-8226 leukemia = test system: RPMI-8226 leukemia
NCI-H460 NSCLC = test system: NCI-H460 NSCLC

Molecule `Cc1cc(Nc2nc(N[C@@H](C)c3ncc(F)cn3)ncc2Cl)n[nH]1` has a GI50 (CAKI-1 renal) of 23.7 µM, a TGI (CAKI-1 renal) of over 100 µM and a GI50 (A549 NSCLC) of 30.4 µM. For the same molecule, the TGI (A549 NSCLC) was over 100 µM, the GI50 (OVCAR-5 ovarian) was 45.1 µM and the TGI (OVCAR-5 ovarian) was over 100 µM. It also gave a GI50 (SW-620 colon) of 24.3 µM, a TGI (SW-620 colon) of 91.3 µM and a GI50 (SF-539 CNS) of 14 µM. For the same molecule, the TGI (SF-539 CNS) was 34.1 µM, the GI50 (SF-295 CNS) was 47.4 µM and the TGI (SF-295 CNS) was over 100 µM. The GI50 (OVCAR-3 ovarian) was 43.8 µM, the TGI (OVCAR-3 ovarian) was over 100 µM and the GI50 (MOLT-4 leukemia) was 16.7 µM. It also gave a TGI (MOLT-4 leukemia) of 33.8 µM, a GI50 (SK-OV-3 ovarian) of 18.6 µM and a TGI (SK-OV-3 ovarian) of 78.1 µM. It also gave a GI50 (IGROV1 ovarian) of 27.8 µM, a TGI (IGROV1 ovarian) of over 100 µM and a GI50 (TK-10 renal) of 34.6 µM. The TGI (TK-10 renal) was over 100 µM, the GI50 (SN12C renal) was 31.3 µM and the TGI (SN12C renal) was over 100 µM. The GI50 (HT29 colon) was 27.4 µM, the TGI (HT29 colon) was over 100 µM and the GI50 (MDA-MB-435 melanoma) was 17.1 µM. For the same molecule, the TGI (MDA-MB-435 melanoma) was over 100 µM, the GI50 (PC-3 prostate) was 42.1 µM and the TGI (PC-3 prostate) was over 100 µM. It also gave a GI50 (NCI-H322M lung) of 42.6 µM, a TGI (NCI-H322M lung) of over 100 µM and a GI50 (MDA-MB-231 breast) of 27.5 µM. For the same molecule, the TGI (MDA-MB-231 breast) was over 100 µM, the GI50 (ACHN renal) was 31.2 µM and the TGI (ACHN renal) was over 100 µM. It also gave a GI50 (SR leukemia) of 5.01 µM, a TGI (SR leukemia) of 12.2 µM and a GI50 (SK-MEL-2 melanoma) of 44.7 µM. The TGI (SK-MEL-2 melanoma) was 85.1 µM, the GI50 (COLO 205 colon) was 41 µM and the TGI (COLO 205 colon) was over 100 µM. The GI50 (MALME-3M melanoma) was 52.8 µM, the TGI (MALME-3M melanoma) was over 100 µM and the GI50 (T-47D breast) was 29.8 µM. For the same molecule, the TGI (T-47D breast) was over 100 µM, the GI50 (NCI-H522 lung) was 4.66 µM and the TGI (NCI-H522 lung) was 28.5 µM. The GI50 (HS 578T breast) was 11.6 µM, the TGI (HS 578T breast) was 29.9 µM and the GI50 (SK-MEL-28 melanoma) was 59.1 µM. For the same molecule, the TGI (SK-MEL-28 melanoma) was over 100 µM, the GI50 (EKVX NSCLC) was 23.9 µM and the TGI (EKVX NSCLC) was 79.3 µM. For the same molecule, the GI50 (HOP-92 NSCLC) was 27.8 µM, the TGI (HOP-92 NSCLC) was 91.3 µM and the GI50 (RPMI-8226 leukemia) was 18.4 µM. The TGI (RPMI-8226 leukemia) was 73 µM and the GI50 (NCI-H460 NSCLC) was 21.5 µM.
